Experimental data from ChEMBL document CHEMBL1201862, “PubChem BioAssay data set” (2004).
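Compound exposure: 48 hours, 5 concentrations, 96-well plates. Here, GI50 denotes the concentration required for 50% inhibition of growth.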 Calls of active or inactive are those of the source. No stated cut-off is given here; in the data, active = GI50 up to about 1.1 µM and inactive = higher.

Columns and labels:
Assay in all cases: NCI-60 cell line screen, 48 h
[1] = tested on: A549
[2] = tested on: HCC 2998
[3] = tested on: HL-60
[4] = tested on: HOP-92
[5] = tested on: HT-29
[6] = tested on: K562
[7] = tested on: M14
[8] = tested on: MOLT-4
[9] = tested on: NCI-H226
[10] = tested on: SF-295
[11] = tested on: SK-MEL-2
[12] = tested on: SK-OV-3
[13] = tested on: SNB-75
[14] = tested on: U-251
[15] = tested on: UACC-257
[16] = tested on: HCT-15
[17] = tested on: SN12C
[18] = tested on: SR

COc1ccc(C(O)/C(=N\NC(N)=S)c2nc3ccc([N+](=O)[O-])cc3nc2O)cc1OC (stereo not drawn)
GI50 [1]: > 100 µM (inactive)
GI50 [2]: > 100 µM (inactive)
GI50 [3]: > 100 µM (inactive)
GI50 [4]: > 100 µM (inactive)
GI50 [5]: > 100 µM (inactive)
GI50 [6]: > 100 µM (inactive)
GI50 [7]: > 100 µM (inactive)
GI50 [8]: 78.3 µM (inactive)
GI50 [9]: > 100 µM (inactive)
GI50 [10]: > 100 µM (inactive)
GI50 [11]: > 100 µM (inactive)
GI50 [12]: > 100 µM (inactive)
GI50 [13]: > 100 µM (inactive)
GI50 [14]: > 100 µM (inactive)
GI50 [15]: 64.3 µM (inactive)

O[C@]12c3ccccc3C1CCCCC2N1CCOCC1 (stereo partly drawn)
GI50 [1]: > 100 µM (inactive)
GI50 [16]: > 100 µM
GI50 [3]: > 100 µM (inactive)
GI50 [5]: > 100 µM (inactive)
GI50 [6]: > 100 µM (inactive)
GI50 [7]: > 100 µM (inactive)
GI50 [8]: > 10 µM (inactive)
GI50 [9]: > 100 µM (inactive)
GI50 [10]: > 100 µM (inactive)
GI50 [11]: > 100 µM (inactive)
GI50 [12]: > 100 µM (inactive)
GI50 [17]: > 100 µM (inactive)
GI50 [13]: > 100 µM (inactive)
GI50 [18]: > 100 µM (inactive)
GI50 [14]: > 100 µM (inactive)
GI50 [15]: > 100 µM (inactive)

CC1=N/C(=C\c2ccc([N+](=O)[O-])cc2)C(=O)O1
GI50 [1]: > 100 µM (inactive)
GI50 [2]: > 100 µM (inactive)
GI50 [16]: > 100 µM
GI50 [3]: > 100 µM (inactive)
GI50 [4]: > 100 µM (inactive)
GI50 [5]: > 100 µM (inactive)
GI50 [6]: > 100 µM (inactive)
GI50 [7]: > 100 µM (inactive)
GI50 [8]: > 100 µM (inactive)
GI50 [10]: > 100 µM (inactive)
GI50 [11]: > 100 µM (inactive)
GI50 [17]: > 100 µM (inactive)
GI50 [14]: > 100 µM (inactive)
GI50 [15]: > 100 µM (inactive)

CCCCCC/C=C/CCCCCCCc1cccc(O)c1C(=O)O
GI50 [1]: 50.4 µM (inactive)
GI50 [16]: 38.4 µM
GI50 [3]: > 100 µM (inactive)
GI50 [5]: 14.4 µM (inactive)
GI50 [6]: 37.2 µM (inactive)
GI50 [7]: > 100 µM (inactive)
GI50 [8]: 48.5 µM (inactive)
GI50 [10]: > 100 µM (inactive)
GI50 [11]: > 100 µM (inactive)
GI50 [12]: 36.3 µM (inactive)
GI50 [13]: > 100 µM (inactive)
GI50 [18]: > 100 µM (inactive)
GI50 [14]: 27.3 µM (inactive)
GI50 [15]: 49.4 µM (inactive)

CCOC(=O)c1ccc(N2C(=O)/C(=C\OC)c3ccccc3C2=O)cc1
GI50 [1]: 43.3 µM (inactive)
GI50 [2]: 46.2 µM (inactive)
GI50 [16]: 36 µM
GI50 [5]: 44.3 µM (inactive)
GI50 [6]: 34.2 µM (inactive)
GI50 [8]: 25.5 µM (inactive)
GI50 [9]: 54 µM (inactive)
GI50 [10]: 33.4 µM (inactive)
GI50 [11]: 23 µM (inactive)
GI50 [12]: 5.22 µM (inactive)
GI50 [17]: 24.5 µM (inactive)
GI50 [13]: 25.5 µM (inactive)
GI50 [18]: 30.3 µM (inactive)
GI50 [14]: 22.7 µM (inactive)
GI50 [15]: 38.5 µM (inactive)

COC(=O)C1CC2(CC3=C1CCCC3)OCCO2 (stereo not drawn)
GI50 [1]: > 100 µM (inactive)
GI50 [2]: > 100 µM (inactive)
GI50 [16]: > 100 µM
GI50 [3]: > 100 µM (inactive)
GI50 [4]: > 100 µM (inactive)
GI50 [5]: > 100 µM (inactive)
GI50 [6]: > 100 µM (inactive)
GI50 [7]: > 100 µM (inactive)
GI50 [10]: > 100 µM (inactive)
GI50 [11]: > 100 µM (inactive)
GI50 [12]: > 100 µM (inactive)
GI50 [17]: > 100 µM (inactive)
GI50 [13]: > 100 µM (inactive)
GI50 [14]: > 100 µM (inactive)
GI50 [15]: > 100 µM (inactive)

On1c(-c2ccccc2)c(-c2c(-c3ccccc3)n(O)c3ccccc23)c2ccccc21
GI50 [1]: 32.4 µM (inactive)
GI50 [16]: 41 µM
GI50 [3]: 32.7 µM (inactive)
GI50 [5]: 45.7 µM (inactive)
GI50 [6]: 36.6 µM (inactive)
GI50 [8]: 37.7 µM (inactive)
GI50 [9]: 17.7 µM (inactive)
GI50 [10]: 22.1 µM (inactive)
GI50 [11]: 25.8 µM (inactive)
GI50 [12]: 29.8 µM (inactive)
GI50 [17]: 46.3 µM (inactive)
GI50 [13]: 27.5 µM (inactive)
GI50 [14]: 35.5 µM (inactive)
GI50 [15]: 26.5 µM (inactive)

CN(C)CC/C(=N\Nc1ccc([N+](=O)[O-])cc1)c1ccccc1
GI50 [1]: 13.4 µM (inactive)
GI50 [16]: 13.6 µM
GI50 [3]: 3.61 µM (inactive)
GI50 [5]: 9.23 µM (inactive)
GI50 [6]: 3.48 µM (inactive)
GI50 [7]: 13.9 µM (inactive)
GI50 [8]: 7.43 µM (inactive)
GI50 [10]: 11.5 µM (inactive)
GI50 [11]: 12.9 µM (inactive)
GI50 [12]: 16.1 µM (inactive)
GI50 [17]: 10.9 µM (inactive)
GI50 [13]: 4.5 µM (inactive)
GI50 [18]: 3.5 µM (inactive)
GI50 [14]: 12.4 µM (inactive)
GI50 [15]: 16.8 µM (inactive)

Cc1ccccc1/N=N/c1ccc(/N=N/c2c(O)ccc3ccccc23)c(C)c1 [SCARLET RED]
GI50 [1]: > 100 µM (inactive)
GI50 [16]: > 100 µM
GI50 [4]: > 100 µM (inactive)
GI50 [5]: > 100 µM (inactive)
GI50 [6]: > 100 µM (inactive)
GI50 [7]: > 100 µM (inactive)
GI50 [8]: > 100 µM (inactive)
GI50 [9]: > 100 µM (inactive)
GI50 [10]: 56.8 µM (inactive)
GI50 [11]: > 100 µM (inactive)
GI50 [12]: > 100 µM (inactive)
GI50 [17]: > 100 µM (inactive)
GI50 [13]: 72.1 µM (inactive)
GI50 [14]: > 100 µM (inactive)
GI50 [15]: > 100 µM (inactive)

CCOc1ccccc1NC(=O)C1=C(C)NC(C)=C(C(=O)Nc2ccccc2OCC)C1c1ccc(NC(C)=O)cc1
GI50 [1]: 46.6 µM (inactive)
GI50 [2]: 12.3 µM (inactive)
GI50 [3]: 31.6 µM (inactive)
GI50 [4]: 9.62 µM (inactive)
GI50 [5]: 40.6 µM (inactive)
GI50 [6]: 37.1 µM (inactive)
GI50 [7]: 29.9 µM (inactive)
GI50 [8]: 32.1 µM (inactive)
GI50 [9]: 27.7 µM (inactive)
GI50 [10]: 13.2 µM (inactive)
GI50 [11]: 17.9 µM (inactive)
GI50 [12]: 11.5 µM (inactive)
GI50 [17]: 30.2 µM (inactive)
GI50 [13]: 9.75 µM (inactive)
GI50 [14]: 46.2 µM (inactive)
GI50 [15]: 23.6 µM (inactive)

N#Cc1c2c(c(N=P(c3ccccc3)(c3ccccc3)c3ccccc3)n3c1nc1ccccc13)CCCC2
GI50 [1]: 21.3 µM (inactive)
GI50 [2]: 26.3 µM (inactive)
GI50 [16]: 20.7 µM
GI50 [3]: 3.86 µM (inactive)
GI50 [5]: 14.7 µM (inactive)
GI50 [6]: 4.76 µM (inactive)
GI50 [7]: 30.8 µM (inactive)
GI50 [8]: 19.6 µM (inactive)
GI50 [9]: 3.68 µM (inactive)
GI50 [10]: 12.8 µM (inactive)
GI50 [11]: 16.6 µM (inactive)
GI50 [12]: 40.9 µM (inactive)
GI50 [17]: 13.1 µM (inactive)
GI50 [13]: 24.5 µM (inactive)
GI50 [14]: 14.4 µM (inactive)
GI50 [15]: 15.5 µM (inactive)

N#CC(NNC(=O)c1ccccc1O)c1ccccc1 (stereo not drawn)
GI50 [1]: 0.423 µM (active)
GI50 [16]: 2.73 µM
GI50 [3]: 1.8 µM (inactive)
GI50 [4]: 0.695 µM (active)
GI50 [5]: 26 µM (inactive)
GI50 [6]: 0.404 µM (active)
GI50 [7]: 0.942 µM (active)
GI50 [8]: 2.15 µM (inactive)
GI50 [9]: 5.87 µM (inactive)
GI50 [10]: 2.89 µM (inactive)
GI50 [11]: 2.55 µM (inactive)
GI50 [12]: 3.62 µM (inactive)
GI50 [17]: 9.08 µM (inactive)
GI50 [13]: 0.38 µM (active)
GI50 [18]: 0.689 µM (active)
GI50 [14]: 0.486 µM (active)
GI50 [15]: 5.94 µM (inactive)

ClCCCN1CCCCC1CCl (stereo not drawn)
GI50 [1]: > 100 µM (inactive)
GI50 [2]: > 100 µM (inactive)
GI50 [16]: > 100 µM
GI50 [3]: 52.7 µM (inactive)
GI50 [4]: > 100 µM (inactive)
GI50 [5]: > 100 µM (inactive)
GI50 [6]: > 100 µM (inactive)
GI50 [7]: > 100 µM (inactive)
GI50 [8]: 39.4 µM (inactive)
GI50 [10]: 70.1 µM (inactive)
GI50 [11]: > 100 µM (inactive)
GI50 [12]: > 100 µM (inactive)
GI50 [17]: > 100 µM (inactive)
GI50 [13]: 68.4 µM (inactive)
GI50 [18]: 24.8 µM (inactive)
GI50 [14]: > 100 µM (inactive)
